Data: patent US12599597B2, “Substituted N-benzhydrylacetamide inhibitors of jumanji domain histone demethylases for the treatment of cancer” (University of Kentucky Research Foundation, priority 2020, dated 2026)

Tests used:
Assay in all cases: Histone demethylase assay, purified enzyme panel
Type in all cases: biochemical
Settings in all cases: Reference inhibitor
JMJD2C (KDM4C) = molecular target: T1, JMJD2C (KDM4C) (Homo sapiens, UniProt Q9H3R0)
T1 sequence (Q9H3R0 1-1056): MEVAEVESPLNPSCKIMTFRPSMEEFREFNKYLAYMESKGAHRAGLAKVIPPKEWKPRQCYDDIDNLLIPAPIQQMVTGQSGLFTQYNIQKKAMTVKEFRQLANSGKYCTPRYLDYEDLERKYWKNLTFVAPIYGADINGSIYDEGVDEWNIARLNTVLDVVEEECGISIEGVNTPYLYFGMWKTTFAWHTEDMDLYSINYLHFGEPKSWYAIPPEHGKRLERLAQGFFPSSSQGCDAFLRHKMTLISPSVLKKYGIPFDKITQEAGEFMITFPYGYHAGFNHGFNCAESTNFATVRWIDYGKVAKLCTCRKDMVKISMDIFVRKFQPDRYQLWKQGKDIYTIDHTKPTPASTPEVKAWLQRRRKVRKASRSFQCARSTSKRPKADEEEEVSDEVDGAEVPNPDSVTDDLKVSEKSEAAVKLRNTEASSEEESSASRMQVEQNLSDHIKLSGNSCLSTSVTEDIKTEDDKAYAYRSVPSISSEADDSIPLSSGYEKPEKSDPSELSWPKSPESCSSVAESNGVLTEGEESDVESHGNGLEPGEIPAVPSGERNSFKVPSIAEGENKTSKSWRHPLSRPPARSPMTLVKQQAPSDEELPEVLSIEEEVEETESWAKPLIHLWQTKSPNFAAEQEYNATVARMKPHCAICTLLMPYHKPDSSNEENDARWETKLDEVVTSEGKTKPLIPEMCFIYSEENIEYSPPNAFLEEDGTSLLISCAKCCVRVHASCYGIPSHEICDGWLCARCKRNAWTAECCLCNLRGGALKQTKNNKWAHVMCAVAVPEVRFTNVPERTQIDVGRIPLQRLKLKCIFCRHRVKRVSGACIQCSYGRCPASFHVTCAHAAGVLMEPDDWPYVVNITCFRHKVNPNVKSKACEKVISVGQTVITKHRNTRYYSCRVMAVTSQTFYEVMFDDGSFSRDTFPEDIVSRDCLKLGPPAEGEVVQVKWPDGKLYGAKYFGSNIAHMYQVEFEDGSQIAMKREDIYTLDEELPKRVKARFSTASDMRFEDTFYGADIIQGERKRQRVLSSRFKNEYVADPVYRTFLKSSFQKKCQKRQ
Text: (§1) Histone Demethylase Assay
(§2) To further examine the effects of 58B1 on histone demethylase, we screened a panel of purified histone demethylases was screened.

JMJD2A (KDM4A) = molecular target: T2, JMJD2A (KDM4A) (Homo sapiens, UniProt O75164)
T2 sequence (O75164 1-1064): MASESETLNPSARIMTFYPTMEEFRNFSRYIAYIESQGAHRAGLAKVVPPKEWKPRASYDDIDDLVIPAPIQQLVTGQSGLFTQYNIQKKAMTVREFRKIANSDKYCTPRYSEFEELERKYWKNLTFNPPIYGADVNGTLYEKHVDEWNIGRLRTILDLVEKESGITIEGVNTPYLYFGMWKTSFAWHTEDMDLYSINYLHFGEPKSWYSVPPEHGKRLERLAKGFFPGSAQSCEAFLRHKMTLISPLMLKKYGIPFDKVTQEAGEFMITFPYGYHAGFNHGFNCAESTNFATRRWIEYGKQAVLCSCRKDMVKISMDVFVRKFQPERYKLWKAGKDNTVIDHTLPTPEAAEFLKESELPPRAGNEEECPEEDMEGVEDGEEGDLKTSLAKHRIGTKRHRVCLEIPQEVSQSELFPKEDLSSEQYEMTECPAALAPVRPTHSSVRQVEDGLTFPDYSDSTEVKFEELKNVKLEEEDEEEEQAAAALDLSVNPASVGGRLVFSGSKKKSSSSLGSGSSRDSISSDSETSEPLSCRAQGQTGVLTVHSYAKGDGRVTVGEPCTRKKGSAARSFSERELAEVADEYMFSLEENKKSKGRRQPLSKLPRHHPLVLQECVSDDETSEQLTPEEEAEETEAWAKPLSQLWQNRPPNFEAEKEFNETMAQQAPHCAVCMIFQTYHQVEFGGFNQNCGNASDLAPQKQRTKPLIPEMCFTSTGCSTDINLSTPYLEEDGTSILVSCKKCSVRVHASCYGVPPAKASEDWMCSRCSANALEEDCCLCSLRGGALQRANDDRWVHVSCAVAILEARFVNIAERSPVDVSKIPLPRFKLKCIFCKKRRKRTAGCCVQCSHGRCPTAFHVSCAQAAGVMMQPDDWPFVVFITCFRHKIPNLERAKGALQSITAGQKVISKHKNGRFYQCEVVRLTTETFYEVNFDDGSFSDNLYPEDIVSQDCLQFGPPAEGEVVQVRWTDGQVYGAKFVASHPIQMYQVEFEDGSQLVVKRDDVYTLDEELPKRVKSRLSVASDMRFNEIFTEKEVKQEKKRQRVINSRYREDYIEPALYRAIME
Text: as §1, §2

FBXL10 (KDM2B) = molecular target: T3, FBXL10 (KDM2B) (Homo sapiens, UniProt Q8NHM5)
T3 sequence (Q8NHM5 1-1336): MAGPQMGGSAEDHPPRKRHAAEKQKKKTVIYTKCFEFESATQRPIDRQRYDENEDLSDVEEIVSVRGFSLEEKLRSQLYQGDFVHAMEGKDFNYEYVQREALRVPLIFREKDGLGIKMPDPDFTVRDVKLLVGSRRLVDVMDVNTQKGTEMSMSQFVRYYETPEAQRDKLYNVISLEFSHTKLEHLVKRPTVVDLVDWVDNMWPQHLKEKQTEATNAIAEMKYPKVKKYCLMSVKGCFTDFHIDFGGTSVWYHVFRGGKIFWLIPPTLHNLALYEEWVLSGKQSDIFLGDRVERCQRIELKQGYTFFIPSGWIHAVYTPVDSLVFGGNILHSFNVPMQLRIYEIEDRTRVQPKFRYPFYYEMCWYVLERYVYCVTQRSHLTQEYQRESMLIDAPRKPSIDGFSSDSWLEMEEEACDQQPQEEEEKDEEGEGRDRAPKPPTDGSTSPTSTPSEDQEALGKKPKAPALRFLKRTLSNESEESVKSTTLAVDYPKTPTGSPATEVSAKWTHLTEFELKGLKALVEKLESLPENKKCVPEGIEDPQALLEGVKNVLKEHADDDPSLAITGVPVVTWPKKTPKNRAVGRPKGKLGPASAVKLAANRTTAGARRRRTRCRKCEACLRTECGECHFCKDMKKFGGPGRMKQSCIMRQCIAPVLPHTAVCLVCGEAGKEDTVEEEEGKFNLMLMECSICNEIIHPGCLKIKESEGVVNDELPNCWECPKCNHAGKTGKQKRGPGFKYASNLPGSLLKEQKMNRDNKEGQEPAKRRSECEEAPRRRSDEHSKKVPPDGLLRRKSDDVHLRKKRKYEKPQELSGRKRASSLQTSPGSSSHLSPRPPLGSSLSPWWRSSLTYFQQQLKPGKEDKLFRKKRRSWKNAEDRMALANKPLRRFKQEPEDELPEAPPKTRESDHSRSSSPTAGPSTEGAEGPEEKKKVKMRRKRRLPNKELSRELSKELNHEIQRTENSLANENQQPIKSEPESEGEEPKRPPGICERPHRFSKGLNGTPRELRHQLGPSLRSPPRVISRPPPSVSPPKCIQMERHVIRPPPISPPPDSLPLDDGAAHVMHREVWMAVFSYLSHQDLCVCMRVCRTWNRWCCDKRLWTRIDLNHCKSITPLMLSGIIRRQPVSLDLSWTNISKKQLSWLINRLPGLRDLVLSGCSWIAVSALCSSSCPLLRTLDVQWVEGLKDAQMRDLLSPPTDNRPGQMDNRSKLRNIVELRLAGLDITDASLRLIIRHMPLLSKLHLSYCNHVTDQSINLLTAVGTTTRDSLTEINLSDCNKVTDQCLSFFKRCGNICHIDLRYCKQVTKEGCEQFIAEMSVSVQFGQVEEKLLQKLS
Text: as §1, §2

## O=C(O)c1ccnc(C(=O)O)c1 [2,4-Pyridine Dicarboxylic Acid, reference compound]
JMJD2C (KDM4C)
  % Inhibition: 100%
JMJD2A (KDM4A)
  % Inhibition: 100%
FBXL10 (KDM2B)
  % Inhibition: 99%
